Test: Paclitaxel release from films into octanol/PBS or octanol/water, 232 nm
Type: physicochemical
Conditions: PBS versus water, 0, 4 and 72 hours, 37° C., continuous shaking
Experimental: Paclitaxel release—Small samples (circular discs, 8 mm) of the Paclitaxel films were placed in a solution of octanol and phosphate buffered saline (PBS) or water at a proportion of 5 ml Octanol and 10 ml PBS (or water). The solution, including the film disc, was shaken continuously at 37° C. for several days. The amount of Paclitaxel in the octanol phase of the solution was measured using a spectrophotometer at 232 nm. Measurements were carried out periodically and the amount of drug released was normalized to baseline values for control films containing no drug.

SMILES: CC(=O)O[C@H]1C(=O)[C@@]2(C)[C@H]([C@H](OC(=O)c3ccccc3)[C@]3(O)C[C@H](OC(=O)[C@H](O)[C@@H](NC(=O)c4ccccc4)c4ccccc4)C(C)=C1C3(C)C)[C@]1(OC(C)=O)CO[C@@H]1C[C@@H]2O [paclitaxel]
- Profile of drug release from films: significantly faster than in water

From patent US20090012595A1, “Therapeutic Drug-Eluting Endoluminal Covering” (priority 2003, published 2009)
